Data as given in PubChem BioAssay (NCI).
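96-well plates; 48 h exposure; 5 concentrations. Endpoints by linear interpolation between flanking doses. Not reached: highest tested concentration assigned. At the GI50, growth is halved. TGI: concentration producing complete growth inhibition.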

Tests used:
Assay in all cases: NCI tumour cell line growth inhibition, 48 h
[1] = system: KM12 colon
[2] = system: SF-268 CNS
[3] = system: K-562 leukemia
[4] = system: SR leukemia
[5] = system: HOP-92 NSCLC
[6] = system: U251 CNS
[7] = system: SF-295 CNS
[8] = system: MDA-MB-231 breast
[9] = system: HS 578T breast
[10] = system: DU-145 prostate

Structure (SMILES) | TGI [1] [µM] | TGI [2] [µM] | TGI [3] [µM] | TGI [4] [µM] | TGI [5] [µM] | TGI [6] [µM] | TGI [7] [µM] | TGI [8] [µM] | TGI [9] [µM] | TGI [10] [µM] | GI50 [1] [µM] | GI50 [2] [µM] | GI50 [3] [µM] | GI50 [7] [µM] | GI50 [8] [µM] | GI50 [5] [µM] | GI50 [9] [µM] | GI50 [6] [µM] | GI50 [10] [µM] | GI50 [4] [µM]
C[Si](C)(C)C(CCCCSc1ccccc1)(Sc1ccccc1)Sc1ccccc1 | > 100 | > 100 | > 100 | > 100 | > 100 | > 100 | > 100 | – | – | – | – | – | – | – | – | – | – | – | – | –
O=C(C#Cc1ccccc1)N1c2ccccc2CC1c1c[nH]c2ccccc12 (stereo unspecified) | 31.5 | – | 49 | 45.3 | 32.5 | 35.8 | 49.7 | – | – | – | – | – | – | – | – | – | – | – | – | –
CCc1ccccc1NC(=O)/C=C/c1ccccc1 | > 100 | > 100 | > 100 | > 100 | – | > 100 | > 100 | > 100 | > 100 | > 100 | – | – | – | – | – | – | – | – | – | –
COc1ccc(OC(C(=O)O)C(C)C)c2c1CCCC2=O (stereo unspecified) | > 100 | > 100 | > 100 | – | – | > 100 | > 100 | – | – | – | – | – | – | – | – | – | – | – | – | –
COc1ccc(-c2cc(C(=O)Nc3cc(C(F)(F)F)cc(C(F)(F)F)c3)c3ccccc3n2)cc1 | 35.1 | 32.2 | > 100 | 38.5 | – | 15.5 | 32.5 | – | – | – | – | – | – | – | – | – | – | – | – | –
[O-]c1ccccc1C=Nc1ccc2c(c1)CCC2.[O-]c1ccccc1C=Nc1ccc2c(c1)CCC2.[O]=[U+2]=[O] | > 100 | > 100 | > 100 | – | – | – | > 100 | – | – | – | > 100 | > 100 | 11.8 | > 100 | – | – | – | – | – | –
CN(C)c1nc(=NCc2ccco2)ss1 | > 55.7 | 51.8 | > 90.8 | 15.3 | – | 67.5 | > 61.4 | 32.2 | 78 | > 100 | – | – | – | – | – | – | – | – | – | –
O=c1nc(-c2ccccc2)cc(CC(O)c2ccc(Cl)c(Cl)c2)[nH]1 (stereo unspecified) | > 100 | > 100 | > 100 | – | > 100 | > 100 | > 100 | – | – | – | – | – | – | – | – | – | – | – | – | –
O=C1C(=O)N(c2ccc(Cl)cc2)C(=O)C(=O)C1c1nc2ccccc2s1 | > 100 | > 100 | > 100 | – | > 100 | > 100 | > 100 | – | – | – | – | – | – | – | – | – | – | – | – | –
C1=C/COCc2cc(ccc2OCCN2CCCC2)Nc2nccc(n2)-c2ccc(o2)COC/1 | 9.37 | 4.45 | > 33.1 | – | 9.47 | 14.7 | 8.02 | 7.9 | 6.77 | 13.8 | 0.451 | 1.69 | 2.65 | 2.74 | 1.97 | 2.21 | 1.89 | 3.07 | 1.57 | –
O=C1OC(c2ccccc2)=N/C1=C\c1ccc(Oc2ccc(Cl)c(Cl)c2)cc1 | > 100 | 57.6 | 73.6 | 57 | > 100 | 65.9 | > 100 | – | – | – | – | – | – | – | – | – | – | – | – | –
COC(=O)CC(C(C(=O)OCc1ccccc1)C(C)O)N1C(=O)OC(c2ccccc2)C1c1ccccc1 (stereo unspecified) | – | > 100 | > 100 | > 100 | – | > 100 | > 100 | – | – | – | – | – | – | – | – | – | – | – | – | –
NCCCCC1NC(=O)C(CC(=O)O)NC(=O)CNC(=O)C(CCCN=C(N)N)NC(=O)C(N)CSSCC(C(=O)O)NC(=O)C(CC(=O)O)NC(=O)C2CCCN2C(=O)CNC1=O (stereo unspecified) | > 100 | > 100 | – | – | – | > 100 | > 100 | > 100 | > 100 | > 100 | > 100 | > 100 | – | > 100 | > 100 | – | > 100 | > 100 | > 100 | –
CCOC(=O)CCC1(C(=O)OCC)CCCC1=O (stereo unspecified) | > 100 | > 100 | > 100 | 60.4 | > 100 | > 100 | > 100 | – | – | – | – | – | – | – | – | – | – | – | – | –
COC(=O)CCC12CCC(=O)C1[C@@H](C(=O)OC)C[C@H]2C(=O)OC (stereo partly specified) | > 100 | > 100 | > 100 | – | – | > 100 | > 100 | – | – | – | – | – | – | – | – | – | – | – | – | –
C#CCNC(=O)NCCCCC(NC(=O)OCc1ccccc1)C(=O)OCc1ccccc1 (stereo unspecified) | 69.8 | – | > 100 | > 100 | > 100 | > 100 | > 100 | – | – | – | – | – | – | – | – | – | – | – | – | –
Cn1cccc1-c1cc(-c2ccccc2)[nH]c(=O)c1C#N | > 100 | > 100 | > 100 | – | 0.0283 | > 100 | > 100 | > 100 | > 100 | > 100 | > 100 | > 100 | > 100 | > 100 | > 100 | – | > 100 | > 100 | > 100 | –
O=c1cccccc1NCCCCCCCNc1cccccc1=O | > 100 | > 100 | > 100 | 89.8 | 97.8 | – | > 100 | – | – | – | – | – | – | – | – | – | – | – | – | –
CN(Cc1ccc(C(F)(F)F)cc1)CC(O)C(=O)Nc1ccc(Cl)cc1 (stereo unspecified) | 2.97 | 2.95 | 2.78 | – | 2.37 | 3.16 | 3.08 | 2.73 | – | 2.77 | 1.54 | 1.4 | 1.18 | 1.63 | 1.34 | 1.08 | – | 1.73 | 1.38 | –
CCC(C)Oc1nc2c(c(=O)n(C)c(=O)n2C)n1C (stereo unspecified) | > 100 | > 100 | > 100 | > 100 | > 100 | > 100 | > 100 | > 100 | – | > 100 | > 100 | > 100 | > 100 | > 100 | > 100 | > 100 | – | > 100 | > 100 | > 100
O=C(O)c1cc(=O)c2c([nH]c3ccccc32)s1 | > 100 | > 100 | > 100 | – | > 100 | – | > 100 | – | – | – | – | – | – | – | – | – | – | – | – | –
Cl/C(N=Nc1ccccc1)=N/Nc1ccccc1 | > 100 | > 100 | > 100 | > 100 | > 100 | > 100 | > 100 | – | – | – | – | – | – | – | – | – | – | – | – | –
O=[N+]([O-])c1cccc(-c2nc(-c3ccccc3)c(-c3ccccc3)[nH]2)c1 | – | > 100 | > 100 | > 100 | – | > 100 | > 100 | > 100 | > 100 | > 100 | – | – | – | – | – | – | – | – | – | –
